Measurements from patent US8563601B2, “Method of managing broncho-constrictive condition” (Indus Biotech Private Limited, priority 2010, dated 2013).

Columns and labels:
[1] = tested on: ovalbumin-induced broncho-constriction in sensitized guinea pigs; assay: In-vivo pulmonary antigen-induced sensitization study (intratracheal pressure); set-up: species or system Male Duncan Hartley derived guinea pigs; details: about 30 mg/kg
Procedure: Prophylactic activity of instant composition against antigen-induced broncho-constriction is tested in sensitized guinea pigs. […] One hour after pretreatment, the guinea pigs are sensitized with intraperitoneal injection of ovalbumin (0.5 μg). A cocktail of Indomethacin (about 10 mg/kg), Mepyramine (about 2 mg/kg) and Propanolol (about 100 mg/kg) is injected about 10 mins before sensitization in order to block other mediators of broncho-blockade. Sensitized animals are anesthetized and artificially ventilated.

[2] = Heart rate and blood pressure in the pulmonary antigen-induced sensitization study; format: in vivo, Male Duncan Hartley derived guinea pigs; details: guinea pigs
Procedure: Prophylactic activity of instant composition against antigen-induced broncho-constriction is tested in sensitized guinea pigs. Male Duncan Hartley derived guinea pigs (400±50 g) are pretreated with instant composition at dose of about 100 mg/kg of body weight of the subject, administered orally. One hour after pretreatment, the guinea pigs are sensitized with intraperitoneal injection of ovalbumin (0.5 μg). A cocktail of Indomethacin (about 10 mg/kg), Mepyramine (about 2 mg/kg) and Propanolol (about 100 mg/kg) is injected about 10 mins before sensitization in order to block other mediators of broncho-blockade. Sensitized animals are anesthetized and artificially ventilated. […]

Question: Which “ΔITP Before Ovalbumin” value ([1]; n = 5) does the source give for `O=C1CCN(c2ccccc2)N1` [Phenidone] here?
Answer: 0 cm H2O

Question: And the “ΔITP After Ovalbumin” value ([1]; n = 5, vehicle control 29.3 ± 2.2)?
Answer: 2.3 ± 0.3 cm H2O

Question: And the “effect on blood pressure” value ([2]; 5 minutes after administration)?
Answer: reduced blood pressure

Question: What about the “Blood Pressure” value ([2]; measured 5 mins after administration, n = 5, vehicle control 49.4 ± 4.0) of the same compound?
Answer: 34.4 ± 1.9 mm Hg

Question: What about the “Heart Rate” value ([2]; measured 5 mins after administration, n = 5, vehicle control 171.2 ± 3.4) of the same compound?
Answer: 162.4 ± 4.7 beats/minute
